Experimental data taken from patent publication US12129237B2, “Substituted diaminocarboxamide and diaminocarbonitrile pyrimidines, compositions thereof, and methods of treatment therewith” (SIGNAL PHARMACEUTICALS, LLC, priority 2011, dated 2024).

Biological target: T1, JNK1 (Homo sapiens, UniProt P45983)
T1 construct: purchased Carna Biosciences
Test: JNK1 biochemical assays (one or more of: time resolved fluorescence, Z'-LYTE Cascade, radioactive)
Settings: Table 2; JNK1 IC50 activity level; read-out: Act. Level
Description: JNK1 Assay. A 384-well time resolved fluorescence assay was used to monitor JNK1 activity. The JNK1 assay was run in the following assay buffer: 50 mM HEPES, 10 mM MgCl2, 1 mM EGTA, 2 mM DTT, and 0.01% Tween 20. To initiate the reaction 100 nM of ULight™-labeled 4EBP1 peptide (Perkin-Elmer) and 5 μM of ATP were mixed with 500 pM of JNK1 (Carna Biosciences), for a total assay volume of 20 μL in each well. The assay was incubated at room temperature for 1 h and terminated using a mixture of 30 mM EDTA and 4 nM Eu-anti-4EBP1, by adding 20 μL of stop solution to each well. Plates were read on a Perkin-Elmer Envision Reader.
JNK1 Assay. The JNK1 Z′-LYTE® Cascade kinase assay was run in the following buffer: 50 mM HEPES at pH 7.5, 0.01% BRIJ-35, 10 mM MgCl2, 1 mM EGTA, and 1 mM DTT. […] The assay was incubated at room temperature for 1 h. […] The data was then read on a fluorescence plate reader and analyzed.
JNK1 assay. The radioactive JNK kinase assay was carried out in a 96-well plate format at a final volume of 100 μL. […] JNK1 was diluted in the following dilution buffer (20 mM HEPES pH 7.6, 0.1 mM EDTA, 2.5 mM MgCl2, 0.004% (w/v) Triton X100, 2 μg/ml Leupeptin, 20 mM B-glycerol phosphate, 0.1 mM Na3VO4 dithiothreitol) and then pre-mixed with cJun diluted in the substrate solution buffer (20 mM HEPES pH 7.6, 50 mM NaCl, 0.1 mM EDTA, 2.5 mM MgCl2, 0.05% (w/v) Triton X100). […] The enzyme, substrate and inhibitor mixture was allowed to equilibrate at room temperature for 15 minutes. The reaction was started by the addition of 10 μL of 10×ATP in kinase buffer (130 mM MgCl2, 6 mM dithiothreitol, 150 mM para-nitrophenyl phosphate, 100 μCi/ml γ-[^33P]-ATP). Reactions were allowed to proceed for 60 minutes before precipitation of protein via trichloroacetic acid (7.2% TCA final). […] The precipitate was washed with Phosphate Buffered Saline and the amount of phosphate incorporated into cJun was quantified by scintillation counting using a Packard Topcount-NXT. All assays were conducted under conditions where phosphate incorporation was linear with respect to time and enzyme concentration.

T1 sequence (P45983 whole entry): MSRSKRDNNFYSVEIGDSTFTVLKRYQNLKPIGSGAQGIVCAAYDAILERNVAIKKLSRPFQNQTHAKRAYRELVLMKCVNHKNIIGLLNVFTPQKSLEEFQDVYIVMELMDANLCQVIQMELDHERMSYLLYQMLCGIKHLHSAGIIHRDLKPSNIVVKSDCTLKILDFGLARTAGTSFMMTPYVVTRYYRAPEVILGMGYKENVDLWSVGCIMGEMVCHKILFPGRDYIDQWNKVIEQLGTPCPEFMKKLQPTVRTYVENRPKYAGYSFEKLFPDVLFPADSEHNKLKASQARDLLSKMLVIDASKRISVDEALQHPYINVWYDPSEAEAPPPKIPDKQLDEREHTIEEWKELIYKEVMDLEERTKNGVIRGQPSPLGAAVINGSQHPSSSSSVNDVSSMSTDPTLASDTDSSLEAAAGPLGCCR

IC50 [nM]	Compound
< 200	NC(=O)c1cnc(NC2CCOCC2)nc1Nc1ccccc1 [Example B-11, 4-(phenylamino)-2-(tetrahydro-2H-pyran-4-ylamino)pyrimidine-5-carboxamide]
< 200	CC(C)(C)Nc1ncc(C(N)=O)c(Nc2ccccc2)n1 [Example B-12, 2-(tert-butylamino)-4-(phenylamino)pyrimidine-5-carboxamide]
< 200	CCN(CC)c1ccc(Nc2ncc(C(N)=O)c(Nc3ccccc3)n2)cc1 [Example B-13, 2-(4-(diethylamino)phenylamino)-4-(phenylamino)pyrimidine-5-carboxamide]
< 200	COc1ccccc1Nc1ncc(C(N)=O)c(Nc2ccccc2)n1 [Example B-15, 2-(2-methoxyphenylamino)-4-(phenylamino)pyrimidine-5-carboxamide]
< 200	COc1ccc(Nc2ncc(C(N)=O)c(Nc3ccccc3)n2)cn1 [Example B-16, 2-(6-methoxypyridin-3-ylamino)-4-(phenylamino)pyrimidine-5-carboxamide]
< 200	COc1ccc(Nc2ncc(C(N)=O)c(Nc3ccccc3)n2)c(C)c1 [Example B-18, 2-(4-methoxy-2-methylphenylamino)-4-(phenylamino)pyrimidine-5-carboxamide]
< 200	COc1cc(Nc2ncc(C(N)=O)c(Nc3ccccc3)n2)cc(OC)c1OC [Example B-19, 4-(phenylamino)-2-(3,4,5-trimethoxyphenylamino)pyrimidine-5-carboxamide]
< 200	COc1ccc(Nc2ncc(C(N)=O)c(Nc3ccccc3)n2)c(OC)c1 [Example B-20, 2-(2,4-dimethoxyphenylamino)-4-(phenylamino)pyrimidine-5-carboxamide]
1000 to 10000	Cc1ccnc(Nc2ncc(C(N)=O)c(Nc3ccccc3)n2)n1 [Example B-21, 2-(4-methylpyrimidin-2-ylamino)-4-(phenylamino)pyrimidine-5-carboxamide]
< 200	NC(=O)c1cnc(Nc2ccccc2Oc2ccccc2)nc1Nc1ccccc1 [Example B-22, 2-(2-phenoxyphenylamino)-4-(phenylamino)pyrimidine-5-carboxamide]
< 200	COc1cc(Nc2ncc(C(N)=O)c(Nc3ccccc3)n2)cc(OC)c1 [Example B-23, 2-(3,5-dimethoxyphenylamino)-4-(phenylamino)pyrimidine-5-carboxamide]
< 200	NC(=O)c1cnc(Nc2cccc(F)c2)nc1Nc1ccccc1 [Example B-24, 2-(3-fluorophenylamino)-4-(phenylamino)pyrimidine-5-carboxamide]
< 200	COc1cccc(Nc2ncc(C(N)=O)c(Nc3ccccc3)n2)c1 [Example B-25, 2-(3-methoxyphenylamino)-4-(phenylamino)pyrimidine-5-carboxamide]
< 200	CCOc1cccc(Nc2ncc(C(N)=O)c(Nc3ccccc3)n2)c1 [Example B-26, 2-(3-ethoxyphenylamino)-4-(phenylamino)pyrimidine-5-carboxamide]
< 200	COc1ccc(Nc2ncc(C(N)=O)c(Nc3ccccc3)n2)cc1F [Example B-27, 2-(3-fluoro-4-methoxyphenylamino)-4-(phenylamino)pyrimidine-5-carboxamide]
< 200	Cc1cccc(Nc2ncc(C(N)=O)c(Nc3ccccc3)n2)c1 [Example B-28, 4-(phenylamino)-2-(m-tolylamino)pyrimidine-5-carboxamide]
1000 to 10000	COc1ccc(-c2ccccc2)cc1Nc1ncc(C(N)=O)c(Nc2ccccc2)n1 [Example B-29, 2-(4-methoxybiphenyl-3-ylamino)-4-(phenylamino)pyrimidine-5-carboxamide]
< 200	Cc1ccccc1Nc1ncc(C(N)=O)c(Nc2ccccc2)n1 [Example B-30, 4-(phenylamino)-2-(o-tolylamino)pyrimidine-5-carboxamide]
200 to 800	NC(=O)c1cnc(NC2CCc3ccccc32)nc1Nc1ccccc1 (stereo not drawn) [Example B-31, 2-(2,3-dihydro-1H-inden-1-ylamino)-4-(phenylamino)pyrimidine-5-carboxamide]
200 to 800	COc1ccc(NC(C)=O)cc1Nc1ncc(C(N)=O)c(Nc2ccccc2)n1 [Example B-32, 2-(5-acetamido-2-methoxyphenylamino)-4-(phenylamino)pyrimidine-5-carboxamide]
200 to 800	Cc1cc(Nc2ncc(C(N)=O)c(Nc3ccccc3)n2)n[nH]1 [Example B-33, 2-(5-methyl-1H-pyrazol-3-ylamino)-4-(phenylamino)pyrimidine-5-carboxamide]
< 200	COc1ccc(C)c(Nc2ncc(C(N)=O)c(Nc3ccccc3)n2)c1 [Example B-34, 2-(5-methoxy-2-methylphenylamino)-4-(phenylamino)pyrimidine-5-carboxamide]
200 to 800	NC(=O)c1cnc(NCC2CC2)nc1Nc1ccccc1 [Example B-35, 2-(cyclopropylmethylamino)-4-(phenylamino)pyrimidine-5-carboxamide]
< 200	NC(=O)c1cnc(NC2CC2)nc1Nc1ccccc1 [Example B-36, 2-(cyclopropylamino)-4-(phenylamino)pyrimidine-5-carboxamide]

IC50 [nM]	Compound
1000 to 10000	NC(=O)c1cnc(N2CCC(C(N)=O)CC2)nc1Nc1ccccc1 [Example B-37, 2-(4-carbamoylpiperidin-1-yl)-4-(phenylamino)pyrimidine-5-carboxamide]
200 to 800	COc1ccc(CCNc2ncc(C(N)=O)c(Nc3ccccc3)n2)cc1 [Example B-38, 2-(4-methoxyphenethylamino)-4-(phenylamino)pyrimidine-5-carboxamide]
200 to 800	NC(=O)c1cnc(NCc2cccc(F)c2)nc1Nc1ccccc1 [Example B-39, 2-(3-fluorobenzylamino)-4-(phenylamino)pyrimidine-5-carboxamide]
< 200	NC(=O)c1cnc(Nc2ccc(N3CCOCC3)cc2)nc1Nc1ccccc1 [Example B-40, 2-(4-morpholinophenylamino)-4-(phenylamino)pyrimidine-5-carboxamide]
1000 to 10000	CC(=O)NCCNc1ncc(C(N)=O)c(Nc2ccccc2)n1 [Example B-41, 2-(2-acetamidoethylamino)-4-(phenylamino)pyrimidine-5-carboxamide]
200 to 800	NC(=O)c1cnc(NCCc2cccs2)nc1Nc1ccccc1 [Example B-42, 4-(phenylamino)-2-(2-(thiophen-2-yl)ethylamino)pyrimidine-5-carboxamide]
200 to 800	COc1ccc(CNc2ncc(C(N)=O)c(Nc3ccccc3)n2)cc1OC [Example B-43, 2-(3,4-dimethoxybenzylamino)-4-(phenylamino)pyrimidine-5-carboxamide]
< 200	NC(=O)c1cnc(NC2CCCC2)nc1Nc1ccccc1 [Example B-44, 2-(cyclopentylamino)-4-(phenylamino)pyrimidine-5-carboxamide]
< 200	NC(=O)c1cnc(NC2CCCCC2)nc1Nc1ccccc1 [Example B-45, 2-(cyclohexylamino)-4-(phenylamino)pyrimidine-5-carboxamide]
< 200	CCC(C)Nc1ncc(C(N)=O)c(Nc2ccccc2)n1 (stereo not drawn) [Example B-46, 2-(sec-butylamino)-4-(phenylamino)pyrimidine-5-carboxamide]
< 200	CC1CCC(Nc2ncc(C(N)=O)c(Nc3ccccc3)n2)CC1 (stereo not drawn) [Example B-47, 2-(4-methylcyclohexylamino)-4-(phenylamino)pyrimidine-5-carboxamide]
< 200	CCOC(=O)N1CCC(Nc2ncc(C(N)=O)c(Nc3ccccc3)n2)CC1 [Example B-48, ethyl 4-(5-carbamoyl-4-(phenylamino)pyrimidin-2-ylamino)piperidine-1-carboxylate]
200 to 800	NC(=O)c1cnc(NCC2CCCCC2)nc1Nc1ccccc1 [Example B-49, 2-(cyclohexylmethylamino)-4-(phenylamino)pyrimidine-5-carboxamide]
200 to 800	NC(=O)c1cnc(NC2CCN(Cc3ccccc3)CC2)nc1Nc1ccccc1 [Example B-50, 2-(1-benzylpiperidin-4-ylamino)-4-(phenylamino)pyrimidine-5-carboxamide]
200 to 800	NC(=O)c1cnc(NCc2cccnc2)nc1Nc1ccccc1 [Example B-51, 4-(phenylamino)-2-(pyridin-3-ylmethylamino)pyrimidine-5-carboxamide]
800 to 1000	NC(=O)c1cnc(NCc2cc(F)cc(F)c2)nc1Nc1ccccc1 [Example B-52, 2-(3,5-difluorobenzylamino)-4-(phenylamino)pyrimidine-5-carboxamide]
200 to 800	CC(Nc1ncc(C(N)=O)c(Nc2ccccc2)n1)c1ccccc1 (stereo not drawn) [Example B-53, 4-(phenylamino)-2-(1-phenylethylamino)pyrimidine-5-carboxamide]
800 to 1000	CCOc1ccccc1CNc1ncc(C(N)=O)c(Nc2ccccc2)n1 [Example B-54, 2-(2-ethoxybenzylamino)-4-(phenylamino)pyrimidine-5-carboxamide]
200 to 800	COc1cccc(CNc2ncc(C(N)=O)c(Nc3ccccc3)n2)c1OC [Example B-55, 2-(2,3-dimethoxybenzylamino)-4-(phenylamino)pyrimidine-5-carboxamide]
200 to 800	CCC(Nc1ncc(C(N)=O)c(Nc2ccccc2)n1)c1ccccc1 (stereo not drawn) [Example B-56, 4-(phenylamino)-2-(1-phenylpropylamino)pyrimidine-5-carboxamide]
200 to 800	NC(=O)c1cnc(NCc2ccc(F)cc2F)nc1Nc1ccccc1 [Example B-57, 2-(2,4-difluorobenzylamino)-4-(phenylamino)pyrimidine-5-carboxamide]
200 to 800	CC1(C)OCC(CNc2ncc(C(N)=O)c(Nc3ccccc3)n2)O1 (stereo not drawn) [Example B-58, 2-((2,2-dimethyl-1,3-dioxolan-4-yl)methylamino)-4-(phenylamino)pyrimidine-5-carboxamide]
< 200	CCC(C)CNc1ncc(C(N)=O)c(Nc2ccccc2)n1 (stereo not drawn) [Example B-59, 2-(2-methylbutylamino)-4-(phenylamino)pyrimidine-5-carboxamide]
200 to 800	COc1ccccc1CNc1ncc(C(N)=O)c(Nc2ccccc2)n1 [Example B-60, 2-(2-methoxybenzylamino)-4-(phenylamino)pyrimidine-5-carboxamide]
